System: 772245-204-R-J1-PDC complex spheroid growth
Test: Anticancer human tumor 772245-204-R-J1-PDC patient-derived rhabdomyosarcoma cell line growth inhibition [Asc]
Conditions: for IC50: curve of first compound; for viability, T/C: stronger effect = lower value
Experimental: Multicellular complex tumor spheroid response to apoptosis pathway targeting inhibitors Alrizomadlin, Pelcitoclax, and Dasminapant in combination with a variety of drugs and investigational agents in selected tumor cell lines
The MDM2 inhibitor alrizomadlin, the Bcl-2/Bcl-xL inhibitor pelcitoclax, and the IAPs inhibitor dasminapant were evaluated both individually and in combination with standard of care and investigational anticancer small molecules within a complex spheroid model of solid tumors. . Complex spheroids include a stromal component modeled by human endothelial cells (HUVEC) and fibroblasts modeled by human mesenchymal stem cells (MSCs). The concentration ranges selected for each drug and investigational agent were based upon clinically achievable concentrations if the clinical Cmax of the agent was known.
Compounds. The drugs and investigational agents: alrizomadlin (APG-115; NSC831270), pelcitoclax (APG-1252; NSC835773), dasminapant (APG-1387;NSC834197), TAK-243 (NSC785004), copanlisib (NSC809693), olaparib (NSC753686), talazoparib (NSC767125), cobimetinib (NSC 768068), eltanexor (KPT-8602, NSC 794443), abemaciclib (NSC 768073), sotorasib (NSC818433), adagrasib (NSC 831453), MRTX-1133 (NSC 836407), Iadademestat (ORY1001, NSC 806812), and RMC-4630 (NSC839698), were obtained from the NCI Developmental Therapeutics Program Chemical Repository. The FDA-approved anticancer drug set is available from the Developmental Therapeutics Program at https://dtp.cancer.gov/organization/dscb/obtaining/available plates.htm. […] The stock solutions were prepared in dimethyl sulfoxide (DMSO, Sigma-Aldrich, St. Louis, MO, cat. D2650) at 800-fold the tested concentration and stored at -70 degrees C prior to their use. All drugs and investigational agents were tested over a range starting from a high concentration at or near the clinical Cmax and decreasing in half-log increments. If the clinical Cmax for an agent had not been determined, the highest concentration tested was 10 microM.
The patient-derived cancer (PDC) cell lines include five colon adenocarcinomas: 186277-243-T-J2-PDC, 616215-338-R-J1-PDC, 439559-082-T-J2-PDC, 463943-066-T-J2-PDC, and 519858-162-T-J1-PDC; three pancreatic carcinomas: 323965-272-R-J2-PDC, 521955-158-R6-J3-PDC, and 521955-158-R2-J5-PDC; two uterine sarcomas: 327498-152-R-J2-PDC and 993429-296-R-J1-PDC; two rhabdomyosarcomas: 755483-174-R-J1-PDC and 772245-204-R-J1-PDC; two soft tissue sarcomas: 126254-015-R-J1-PDC and 494315-158-R-J1-PDC; two malignant fibrous histiocytomas: 317291-083-R-J1-PDC and 596521-263-R-J1-PDC; two breast carcinomas: 171881-019-R-J1-PDC and 885512-296-R-J2-PDC; and one ovarian carcinoma: 6556581-035-R-J-PDC were obtained from the NCI PDMR, (https://pdmr.cancer.gov). The established cell lines HSSY-2 synovial sarcoma (RRID:CVCL 8719), SYO-1 synovial sarcoma (RRID:CVCL_7146), MPNST malignant peripheral neural sheath tumor were obtained from the Sloan Kettering Institute. The following established cell lines were purchased from the American Type Culture Collection (ATCC, Manassas, VA), Sor the received from the NCI repository:, PANC-1 pancreatic carcinoma (CRL-1469, RRID:CVCL_0480), OVCAR-5 ovarian carcinoma (RRID:CVCL_1628), OVCAR-8 ovarian carcinoma (RRID:CVCL_1629), , MCF-7 breast carcinoma (CRL-12584, RRID:CVCL_0031), MDA-MB-231 breast carcinoma (CRL-12532, RRID:CVCL_0062), NCI-H1876 small cell lung carcinoma (CRL-5902, RRID:CVCL_1503), NCI-H510A small cell lung carcinoma (HTB-184, RRID:CVCL_1565), NCI-H1417 (CRL-5869, RRID:CVCL_1469), and NCI-H196 small cell lung carcinoma (CRL-5823, RRID:CVCL_1509). Dr. Peter Houghton (Greehey Children's Cancer Research Institute, University of Texas Health Science Center, San Antonio, TX) provided Rh-18 rhabdomyosarcoma (RRID:CVCL_1659). Pooled donor human umbilical vein endothelial cells (HUVEC, Lonza, cat. CC-2519) and human mesenchymal stem cells (hMSC, Lonza, cat. PT-2501) were purchased from Lonza (Walkersville, MD).
Cell Culture. […]

[1] = second compound 0.03 µM, first compound 0.00316 µM
[2] = second compound 0.03 µM, first compound 0.01 µM
[3] = second compound 0.03 µM, first compound 0.0316 µM
[4] = second compound 0.03 µM, first compound 0.1 µM
[5] = second compound 0.03 µM, first compound 0.316 µM
[6] = second compound 0.03 µM, first compound 1 µM
[7] = second compound 0.0949 µM, first compound 0.00316 µM
[8] = second compound 0.0949 µM, first compound 0.01 µM
[9] = second compound 0.0949 µM, first compound 0.0316 µM
[10] = second compound 0.0949 µM, first compound 0.1 µM
[11] = second compound 0.0949 µM, first compound 0.316 µM
[12] = second compound 0.0949 µM, first compound 1 µM
[13] = second compound 0.3 µM, first compound 0.00316 µM
[14] = second compound 0.3 µM, first compound 0.01 µM
[15] = second compound 0.3 µM, first compound 0.0316 µM
[16] = second compound 0.3 µM, first compound 0.1 µM
[17] = second compound 0.3 µM, first compound 0.316 µM
[18] = second compound 0.3 µM, first compound 1 µM
[19] = second compound 0.949 µM, first compound 0.00316 µM
[20] = second compound 0.949 µM, first compound 0.01 µM
[21] = second compound 0.949 µM, first compound 0.0316 µM
[22] = second compound 0.949 µM, first compound 0.1 µM
[23] = second compound 0.949 µM, first compound 0.316 µM
[24] = second compound 0.949 µM, first compound 1 µM
[25] = second compound 3 µM, first compound 0.00316 µM
[26] = second compound 3 µM, first compound 0.01 µM
[27] = second compound 3 µM, first compound 0.0316 µM
[28] = second compound 3 µM, first compound 0.1 µM
[29] = second compound 3 µM, first compound 0.316 µM
[30] = second compound 3 µM, first compound 1 µM
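Further: compound exposure lasted seven days.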
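Wherever viability, T/C is given: 100% = DMSO vehicle control viability.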

CCN1CCN(Cc2ccc(Nc3ncc(F)c(-c4cc(F)c5nc(C)n(C(C)C)c5c4)n3)nc2)CC1 + CCN1C(C(=O)NC23CCC(C(=O)O)(CC2)CC3)C(c2cccc(Cl)c2F)C2(C(=O)Nc3cc(Cl)ccc32)C12CCCCC2
IC50 (second compound 0.03 µM): > 1000 nM
IC50 (second compound 0.0949 µM): > 1000 nM
IC50 (second compound 0.3 µM): > 1000 nM
IC50 (second compound 0.949 µM): > 1000 nM
IC50 (second compound 3 µM): > 1000 nM
viability, T/C [1]: 100%
viability, T/C [2]: 97.4%
viability, T/C [3]: 103%
viability, T/C [4]: 110%
viability, T/C [5]: 114%
viability, T/C [6]: 116%
viability, T/C [7]: 99.5%
viability, T/C [8]: 110%
viability, T/C [9]: 101%
viability, T/C [10]: 111%
viability, T/C [11]: 114%
viability, T/C [12]: 116%
viability, T/C [13]: 106%
viability, T/C [14]: 111%
viability, T/C [15]: 122%
viability, T/C [16]: 103%
viability, T/C [17]: 102%
viability, T/C [18]: 131%
viability, T/C [19]: 94.3%
viability, T/C [20]: 93.4%
viability, T/C [21]: 100%
viability, T/C [22]: 102%
viability, T/C [23]: 92.9%
viability, T/C [24]: 96%
viability, T/C [25]: 77.9%
viability, T/C [26]: 84.7%
viability, T/C [27]: 85.5%
viability, T/C [28]: 89.9%
viability, T/C [29]: 80.1%
viability, T/C [30]: 121%

O=C(c1ccc(F)c(F)c1Nc1ccc(I)cc1F)N1CC(O)([C@@H]2CCCCN2)C1 + CCN1C(C(=O)NC23CCC(C(=O)O)(CC2)CC3)C(c2cccc(Cl)c2F)C2(C(=O)Nc3cc(Cl)ccc32)C12CCCCC2
IC50 (second compound 0.03 µM): > 1000 nM
IC50 (second compound 0.0949 µM): > 1000 nM
IC50 (second compound 0.3 µM): > 1000 nM
IC50 (second compound 0.949 µM): > 1000 nM
IC50 (second compound 3 µM): > 1000 nM
viability, T/C [1]: 115%
viability, T/C [2]: 109%
viability, T/C [3]: 108%
viability, T/C [4]: 112%
viability, T/C [5]: 100%
viability, T/C [6]: 50.8%
viability, T/C [7]: 113%
viability, T/C [8]: 91.5%
viability, T/C [9]: 108%
viability, T/C [10]: 105%
viability, T/C [11]: 115%
viability, T/C [12]: 70.6%
viability, T/C [13]: 102%
viability, T/C [14]: 121%
viability, T/C [15]: 98.6%
viability, T/C [16]: 106%
viability, T/C [17]: 106%
viability, T/C [18]: 73.9%
viability, T/C [19]: 110%
viability, T/C [20]: 109%
viability, T/C [21]: 115%
viability, T/C [22]: 98.5%
viability, T/C [23]: 105%
viability, T/C [24]: 62.3%
viability, T/C [25]: 90.9%
viability, T/C [26]: 87.1%
viability, T/C [27]: 85.1%
viability, T/C [28]: 100%
viability, T/C [29]: 88.5%
viability, T/C [30]: 53.3%

— PubChem BioAssay AID1963433 (Molecular Pharmacology Branch, DTP, NCI, 2024)
